Measurements from patent US10087187B2, “Imidazopyridazine derivatives as PI3KB inhibitors” (Janssen Pharmaceutica NV, priority 2014, dated 2018).
Read-outs that look alike come from different tables or passages of the source.

Legend:
[1] = test system: Akt phosphorylated at Thr308 in PC-3 cells; experiment: Cellular assay: phosphorylation of Akt (Thr308) in PC-3 cells, MSD ELISA; type: cell-based; conditions: 60 min incubation with compound, read-out: IC50 pAkt_Thr308
Outline: (§1)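 PC-3 cells cultured 24 h in DMEM/10% FCS were exposed to compound for 60 min at 37° C, with 0.3% DMSO. Lysates were analysed by MSD electrochemiluminescent sandwich ELISA using phospho-Ser473 or phospho-Thr308 capture and anti-total Akt detection antibodies. IC50 was derived by nonlinear sigmoidal fitting of % inhibition over five concentrations.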

PIK3Cβ_h = PIK3Cβ_h (Homo sapiens (Human), UniProt P42338); experiment: KINOMEscan enzyme binding assay, PIK3Cβ; conditions: DiscoveRx
Experimental: (§2) Enzyme Binding Assays (KINOMEscan®) Kinase enzyme binding affinities of compounds disclosed herein were determined using the KINOMEscan technology performed by DiscoveRx Corporation, San Diego, Calif., USA (www.kinomescan.com). Table A reports the obtained Kd values (nM), with the Kd being the inhibitor binding constant: […]

PIK3Cδ_h = PIK3Cδ_h (Homo sapiens (Human), UniProt O00329); experiment: KINOMEscan enzyme binding assay, PIK3Cδ; conditions: DiscoveRx
Experimental: as §2

MTOR_h = MTOR_h (Homo sapiens (Human), UniProt P42345); experiment: KINOMEscan enzyme binding assay, MTOR; conditions: DiscoveRx
Experimental: (§3) Enzyme Binding Assays (KINOMEscan®) Kinase enzyme binding affinities of compounds disclosed herein were determined using the KINOMEscan technology performed by DiscoveRx Corporation, San Diego, Calif., USA (www.kinomescan.com).

[2] = test system: Akt phosphorylated at Ser473 in PC-3 cells; experiment: Cellular assay: phosphorylation of Akt (Ser473) in PC-3 cells, MSD ELISA; type: cell-based; conditions: 60 min incubation with compound, read-out: IC50 pAkt_S473
Outline: as §1

PIK3Cγ_h = PIK3Cγ_h (Homo sapiens (Human), UniProt P48736); experiment: KINOMEscan enzyme binding assay, PIK3Cγ; conditions: DiscoveRx
Experimental: as §3

PIK3Cα_h = PIK3Cα_h (Homo sapiens (Human), UniProt P42336); experiment: KINOMEscan enzyme binding assay, PIK3Cα; conditions: DiscoveRx
Experimental: as §3

PIK3Cδ_h, sequence (O00329 whole entry): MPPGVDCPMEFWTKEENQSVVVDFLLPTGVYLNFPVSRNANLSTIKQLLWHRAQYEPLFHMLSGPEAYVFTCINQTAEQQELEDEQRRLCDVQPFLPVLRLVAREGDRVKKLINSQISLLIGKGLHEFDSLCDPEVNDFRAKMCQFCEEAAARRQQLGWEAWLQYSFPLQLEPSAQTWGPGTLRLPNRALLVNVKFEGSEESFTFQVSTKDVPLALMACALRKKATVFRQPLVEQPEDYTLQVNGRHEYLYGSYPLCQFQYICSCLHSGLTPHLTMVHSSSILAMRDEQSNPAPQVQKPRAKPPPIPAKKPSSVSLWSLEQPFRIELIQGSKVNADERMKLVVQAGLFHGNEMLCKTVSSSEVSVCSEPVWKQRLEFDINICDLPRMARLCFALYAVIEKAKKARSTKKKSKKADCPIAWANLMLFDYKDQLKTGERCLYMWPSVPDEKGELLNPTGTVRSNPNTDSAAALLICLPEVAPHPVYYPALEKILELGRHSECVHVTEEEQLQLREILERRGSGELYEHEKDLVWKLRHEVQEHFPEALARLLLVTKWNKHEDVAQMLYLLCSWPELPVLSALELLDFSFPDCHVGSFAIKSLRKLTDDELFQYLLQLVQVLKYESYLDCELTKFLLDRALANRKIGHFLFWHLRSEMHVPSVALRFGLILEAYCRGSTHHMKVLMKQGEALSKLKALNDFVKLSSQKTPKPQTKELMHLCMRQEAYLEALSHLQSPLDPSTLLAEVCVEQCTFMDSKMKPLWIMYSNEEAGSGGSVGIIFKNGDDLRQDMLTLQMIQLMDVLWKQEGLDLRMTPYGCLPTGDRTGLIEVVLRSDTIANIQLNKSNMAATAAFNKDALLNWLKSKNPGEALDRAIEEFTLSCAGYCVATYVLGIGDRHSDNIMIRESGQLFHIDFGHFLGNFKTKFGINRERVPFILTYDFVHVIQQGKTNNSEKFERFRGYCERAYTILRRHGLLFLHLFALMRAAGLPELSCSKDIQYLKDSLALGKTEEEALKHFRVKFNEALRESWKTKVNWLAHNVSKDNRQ
PIK3Cγ_h, sequence (P48736 whole entry): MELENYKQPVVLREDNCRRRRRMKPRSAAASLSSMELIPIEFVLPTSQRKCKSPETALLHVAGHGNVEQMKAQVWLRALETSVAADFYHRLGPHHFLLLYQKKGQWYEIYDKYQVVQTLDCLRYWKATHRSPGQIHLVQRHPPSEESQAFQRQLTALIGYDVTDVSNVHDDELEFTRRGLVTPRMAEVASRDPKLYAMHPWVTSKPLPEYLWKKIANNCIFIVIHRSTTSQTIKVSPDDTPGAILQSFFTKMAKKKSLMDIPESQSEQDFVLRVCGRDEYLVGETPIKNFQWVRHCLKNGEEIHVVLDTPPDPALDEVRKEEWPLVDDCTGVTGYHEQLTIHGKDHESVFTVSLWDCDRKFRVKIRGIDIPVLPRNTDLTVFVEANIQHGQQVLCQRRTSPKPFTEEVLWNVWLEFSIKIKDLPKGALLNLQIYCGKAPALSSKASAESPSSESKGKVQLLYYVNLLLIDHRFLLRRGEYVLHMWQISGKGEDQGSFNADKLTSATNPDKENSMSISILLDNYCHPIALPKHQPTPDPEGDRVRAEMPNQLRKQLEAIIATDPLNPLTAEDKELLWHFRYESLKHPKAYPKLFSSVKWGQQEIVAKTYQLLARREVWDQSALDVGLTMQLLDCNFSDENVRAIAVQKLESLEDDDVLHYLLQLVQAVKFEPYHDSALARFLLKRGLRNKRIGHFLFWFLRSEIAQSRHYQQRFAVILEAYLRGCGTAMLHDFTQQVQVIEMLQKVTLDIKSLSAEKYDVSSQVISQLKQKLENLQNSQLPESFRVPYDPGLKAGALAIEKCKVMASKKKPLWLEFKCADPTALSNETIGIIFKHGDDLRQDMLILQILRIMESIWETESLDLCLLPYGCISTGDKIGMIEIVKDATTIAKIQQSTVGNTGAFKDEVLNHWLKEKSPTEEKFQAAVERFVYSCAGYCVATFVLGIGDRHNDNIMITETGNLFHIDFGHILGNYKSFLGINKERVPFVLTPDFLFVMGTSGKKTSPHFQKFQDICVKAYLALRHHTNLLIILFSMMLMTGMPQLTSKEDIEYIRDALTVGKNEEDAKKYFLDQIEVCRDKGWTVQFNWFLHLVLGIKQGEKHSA
PIK3Cα_h, sequence (P42336 whole entry): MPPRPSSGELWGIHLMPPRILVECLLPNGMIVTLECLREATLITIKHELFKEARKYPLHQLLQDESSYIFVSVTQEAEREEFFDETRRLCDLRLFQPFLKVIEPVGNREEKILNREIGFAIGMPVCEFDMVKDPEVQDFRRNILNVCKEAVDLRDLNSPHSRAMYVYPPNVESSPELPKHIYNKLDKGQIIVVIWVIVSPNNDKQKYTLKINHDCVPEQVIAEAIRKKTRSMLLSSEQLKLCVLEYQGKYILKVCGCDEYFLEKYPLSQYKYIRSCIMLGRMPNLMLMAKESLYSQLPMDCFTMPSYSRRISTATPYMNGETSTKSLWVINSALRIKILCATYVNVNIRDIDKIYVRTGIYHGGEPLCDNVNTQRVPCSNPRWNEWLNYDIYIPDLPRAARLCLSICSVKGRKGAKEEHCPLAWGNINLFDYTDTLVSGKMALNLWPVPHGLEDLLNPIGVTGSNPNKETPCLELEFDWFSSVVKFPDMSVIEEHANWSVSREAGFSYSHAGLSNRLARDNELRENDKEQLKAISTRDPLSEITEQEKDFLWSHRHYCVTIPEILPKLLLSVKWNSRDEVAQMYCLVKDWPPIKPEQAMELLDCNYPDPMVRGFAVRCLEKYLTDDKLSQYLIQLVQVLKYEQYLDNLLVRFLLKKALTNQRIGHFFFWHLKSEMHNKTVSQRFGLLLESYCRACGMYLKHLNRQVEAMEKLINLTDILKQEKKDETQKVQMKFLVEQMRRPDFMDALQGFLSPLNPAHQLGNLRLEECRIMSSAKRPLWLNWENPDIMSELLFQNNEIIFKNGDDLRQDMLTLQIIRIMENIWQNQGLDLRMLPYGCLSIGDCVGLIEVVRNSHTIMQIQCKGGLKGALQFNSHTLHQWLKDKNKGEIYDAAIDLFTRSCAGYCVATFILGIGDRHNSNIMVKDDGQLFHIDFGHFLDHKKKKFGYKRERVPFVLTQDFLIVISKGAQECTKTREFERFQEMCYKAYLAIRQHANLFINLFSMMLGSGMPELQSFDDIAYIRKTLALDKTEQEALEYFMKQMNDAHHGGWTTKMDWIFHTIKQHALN
PIK3Cβ_h, sequence (P42338 whole entry): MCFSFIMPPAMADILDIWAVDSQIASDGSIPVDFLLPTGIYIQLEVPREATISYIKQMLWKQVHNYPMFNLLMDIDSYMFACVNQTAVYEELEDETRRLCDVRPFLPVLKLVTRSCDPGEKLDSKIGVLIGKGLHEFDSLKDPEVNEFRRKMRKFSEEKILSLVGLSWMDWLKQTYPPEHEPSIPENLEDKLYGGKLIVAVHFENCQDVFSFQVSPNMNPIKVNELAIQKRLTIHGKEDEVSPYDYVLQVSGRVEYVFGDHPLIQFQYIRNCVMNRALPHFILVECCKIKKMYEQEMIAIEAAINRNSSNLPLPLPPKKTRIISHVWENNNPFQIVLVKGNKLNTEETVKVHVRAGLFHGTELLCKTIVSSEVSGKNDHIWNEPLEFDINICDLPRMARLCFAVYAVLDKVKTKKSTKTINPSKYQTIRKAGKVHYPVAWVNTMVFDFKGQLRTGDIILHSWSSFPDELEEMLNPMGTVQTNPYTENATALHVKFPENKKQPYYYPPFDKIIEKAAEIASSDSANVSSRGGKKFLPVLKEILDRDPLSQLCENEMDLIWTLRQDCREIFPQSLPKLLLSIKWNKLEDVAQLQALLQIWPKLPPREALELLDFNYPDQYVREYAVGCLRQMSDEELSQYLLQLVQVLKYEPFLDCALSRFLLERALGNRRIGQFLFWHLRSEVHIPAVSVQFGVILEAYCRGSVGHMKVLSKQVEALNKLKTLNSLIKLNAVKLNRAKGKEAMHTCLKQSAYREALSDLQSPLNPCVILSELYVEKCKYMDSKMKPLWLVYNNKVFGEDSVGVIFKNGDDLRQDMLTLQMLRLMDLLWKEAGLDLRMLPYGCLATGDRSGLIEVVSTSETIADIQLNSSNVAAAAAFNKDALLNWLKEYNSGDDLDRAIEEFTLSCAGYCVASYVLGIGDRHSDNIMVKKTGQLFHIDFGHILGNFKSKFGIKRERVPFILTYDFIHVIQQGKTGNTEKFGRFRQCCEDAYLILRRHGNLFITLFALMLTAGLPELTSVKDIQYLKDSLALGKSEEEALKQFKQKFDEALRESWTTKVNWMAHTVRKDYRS

Cc1nc2c(N)cc(N3CCOCC3)nn2c1Nc1cccc(C(F)(F)F)c1CN1CCS(=O)(=O)CC1 [Compound 43]
IC50 ([1]; Homo sapiens, PC-3, 1 h): 170 nM
Kd (PIK3Cβ_h): 2 nM
Kd (PIK3Cδ_h): 47 nM
Kd (MTOR_h): > 30200 nM
IC50 ([2]; Homo sapiens, PC-3, 1 h): ~339 nM
Kd (PIK3Cγ_h): 7760 nM
Kd (PIK3Cα_h): 3310 nM

Cc1c(Cc2c(CO)nc3c(N)cc(N4CCOC(C)C4)nn23)cccc1C(F)(F)F (stereo not drawn) [Compound 26]
IC50 ([1]; Homo sapiens, PC-3, 1 h): ~309 nM
Kd (PIK3Cβ_h): 331 nM
Kd (PIK3Cδ_h): 13800 nM
Kd (MTOR_h): 8510 nM
IC50 ([2]; Homo sapiens, PC-3, 1 h): > 513 nM
Kd (PIK3Cγ_h): 11700 nM
Kd (PIK3Cα_h): > 30200 nM

CC(CO)NCc1c(F)cccc1Cc1c(CO)nc2c(N)cc(N3CCOCC3)nn12 (stereo not drawn) [Compound 102]
IC50 ([1]; Homo sapiens, PC-3, 1 h): > 513 nM
Kd (PIK3Cβ_h): 141 nM
Kd (PIK3Cδ_h): 1510 nM
Kd (MTOR_h): > 30200 nM
IC50 ([2]; Homo sapiens, PC-3, 1 h): > 513 nM
Kd (PIK3Cγ_h): > 30200 nM
Kd (PIK3Cα_h): > 30200 nM

Cc1nc2c(C(=O)O)cc(N3CCOCC3)nn2c1Cc1cccc(Cl)c1C [Compound 13]
IC50 ([1]; Homo sapiens, PC-3, 1 h): ~263 nM
Kd (PIK3Cβ_h): 0.5 nM
Kd (PIK3Cδ_h): 56 nM
Kd (MTOR_h): 9550 nM
IC50 ([2]; Homo sapiens, PC-3, 1 h): > 513 nM
Kd (PIK3Cγ_h): 3550 nM
Kd (PIK3Cα_h): 525 nM

Cc1nc2c(-c3cnc[nH]3)cc(N3CCOCC3)nn2c1Cc1cccc(C(F)(F)F)c1C [Compound 5]
IC50 ([1]; Homo sapiens, PC-3, 1 h): ~48 nM
Kd (PIK3Cβ_h): 6 nM
Kd (PIK3Cδ_h): 316 nM
Kd (MTOR_h): 2400 nM
IC50 ([2]; Homo sapiens, PC-3, 1 h): ~59 nM
Kd (PIK3Cγ_h): 10200 nM
Kd (PIK3Cα_h): 617 nM

Cc1c(Cc2c(CO)nc3c(-c4c[nH]cn4)cc(N4CCOC(C)C4)nn23)cccc1C(F)(F)F (stereo not drawn) [Compound 27]
IC50 [1]: 14 nM
Kd (PIK3Cβ_h): 2.4 nM
Kd (PIK3Cδ_h): 58 nM
Kd (MTOR_h): 447 nM
IC50 [2]: 42 nM
Kd (PIK3Cγ_h): 479 nM
Kd (PIK3Cα_h): 617 nM

Cc1nc2c(N)cc(N3CCOCC3)nn2c1Nc1cccc(C(F)(F)F)c1C1CCN(CCO)CC1 [Compound 73]
IC50 ([1]; Homo sapiens, PC-3, 1 h): ~72 nM
Kd (PIK3Cβ_h): 0.3 nM
Kd (PIK3Cδ_h): 28 nM
Kd (MTOR_h): > 30200 nM
IC50 ([2]; Homo sapiens, PC-3, 1 h): 89 nM
Kd (PIK3Cγ_h): 24000 nM
Kd (PIK3Cα_h): 3240 nM

CC(=O)NCc1nc2c(-c3ncc[nH]3)cc(N3CCOCC3)nn2c1Cc1cccc(C(F)(F)F)c1C [Compound 18]
IC50 ([1]; Homo sapiens, PC-3, 1 h): 11 nM
Kd (PIK3Cβ_h): 2 nM
Kd (PIK3Cδ_h): 59 nM
Kd (MTOR_h): > 30200 nM
IC50 ([2]; Homo sapiens, PC-3, 1 h): 33 nM
Kd (PIK3Cγ_h): > 30200 nM
Kd (PIK3Cα_h): > 30200 nM

Cc1nc2c(N)cc(N3CCOCC3)nn2c1Nc1cccc(C(F)(F)F)c1CN1CC2(CCS2(=O)=O)C1 [Compound 53]
IC50 ([1]; Homo sapiens, PC-3, 1 h): ~87 nM
Kd (PIK3Cβ_h): 5 nM
Kd (PIK3Cδ_h): 73 nM
Kd (MTOR_h): > 30200 nM
IC50 ([2]; Homo sapiens, PC-3, 1 h): ~176 nM
Kd (PIK3Cγ_h): 19600 nM
Kd (PIK3Cα_h): 10000 nM

Cc1nc2c(-c3ccn[nH]3)cc(N3CCOCC3)nn2c1Nc1ccccc1N1CCOCC1 [Compound 89]
IC50 ([1]; Homo sapiens, PC-3, 1 h): 83 nM
Kd (PIK3Cβ_h): 22 nM
Kd (PIK3Cδ_h): 44 nM
Kd (MTOR_h): 85 nM
IC50 ([2]; Homo sapiens, PC-3, 1 h): 115 nM
Kd (PIK3Cγ_h): 851 nM
Kd (PIK3Cα_h): 631 nM

Cc1nc2c(-c3cnc[nH]3)cc(N3CCOCC3)nn2c1Nc1cccc(C(F)(F)F)c1CN1CC(O)C1 [Compound 46]
IC50 ([1]; Homo sapiens, PC-3, 1 h): 17 nM
Kd (PIK3Cβ_h): 3 nM
Kd (PIK3Cδ_h): 11 nM
Kd (MTOR_h): 1230 nM
IC50 ([2]; Homo sapiens, PC-3, 1 h): 174 nM
Kd (PIK3Cγ_h): 741 nM
Kd (PIK3Cα_h): 661 nM

Cc1nc2c(N)cc(N3CCOCC3)nn2c1Nc1cccc(C(F)(F)F)c1CN1CCC2(C1)CS(=O)(=O)C2 [Compound 49]
IC50 ([1]; Homo sapiens, PC-3, 1 h): ~21 nM
Kd (PIK3Cβ_h): 9 nM
Kd (PIK3Cδ_h): 331 nM
Kd (MTOR_h): > 30200 nM
IC50 ([2]; Homo sapiens, PC-3, 1 h): 45 nM
Kd (PIK3Cγ_h): > 30200 nM
Kd (PIK3Cα_h): 13500 nM

Nc1cc(N2CCOCC2)nn2c(Cc3cccc(F)c3C3CCN(CCO)CC3)c(CO)nc12 [Compound 108]
IC50 ([1]; Homo sapiens, PC-3, 1 h): > 513 nM
Kd (PIK3Cβ_h): 14 nM
Kd (PIK3Cδ_h): 376 nM
Kd (MTOR_h): 18700 nM
IC50 ([2]; Homo sapiens, PC-3, 1 h): > 513 nM
Kd (PIK3Cγ_h): 13600 nM
Kd (PIK3Cα_h): 21400 nM

Cc1nc2c(N)cc(N3CCOCC3)nn2c1Nc1cccc(C(F)(F)F)c1CN1CCN(C)CC1 [Compound 58]
IC50 ([1]; Homo sapiens, PC-3, 1 h): 17 nM
Kd (PIK3Cβ_h): 0.4 nM
Kd (PIK3Cδ_h): 20 nM
Kd (MTOR_h): 21400 nM
IC50 ([2]; Homo sapiens, PC-3, 1 h): 21 nM
Kd (PIK3Cγ_h): 12300 nM
Kd (PIK3Cα_h): 4270 nM

Cc1c(Cc2c(COC(=O)C(N)Cc3ccccc3)nc3c(N)cc(N4CCOCC4)nn23)cccc1C(F)(F)F (stereo not drawn) [Compound 80]
IC50 ([1]; Homo sapiens, PC-3, 1 h): ~195 nM
Kd (PIK3Cβ_h): 44 nM
Kd (PIK3Cδ_h): 6030 nM
Kd (MTOR_h): > 30200 nM
IC50 ([2]; Homo sapiens, PC-3, 1 h): 209 nM
Kd (PIK3Cγ_h): > 30200 nM
Kd (PIK3Cα_h): > 30200 nM

Cc1c(Cc2c(C(C)O)nc3c(-c4ncc[nH]4)cc(N4CCOCC4)nn23)cccc1C(F)(F)F (stereo not drawn) [Compound 31]
IC50 ([1]; Homo sapiens, PC-3, 1 h): 22 nM
Kd (PIK3Cβ_h): 2.5 nM
Kd (PIK3Cδ_h): 71 nM
Kd (MTOR_h): > 10000 nM
IC50 ([2]; Homo sapiens, PC-3, 1 h): 46 nM
Kd (PIK3Cγ_h): 17000 nM
Kd (PIK3Cα_h): 2290 nM

Cc1nc2c(N)cc(N3CCOCC3)nn2c1Nc1cccc2c1CCNC2 [Compound 64]
IC50 ([1]; Homo sapiens, PC-3, 1 h): 112 nM
Kd (PIK3Cβ_h): 8 nM
Kd (PIK3Cδ_h): 34 nM
Kd (MTOR_h): 17000 nM
IC50 ([2]; Homo sapiens, PC-3, 1 h): 166 nM
Kd (PIK3Cγ_h): > 30200 nM
Kd (PIK3Cα_h): 20900 nM

Cc1nc2c(-c3ccn[nH]3)cc(N3CCOCC3)nn2c1Cc1cccc(C(F)(F)F)c1C [Compound 8]
IC50 ([1]; Homo sapiens, PC-3, 1 h): 204 nM
Kd (PIK3Cβ_h): 31 nM
Kd (PIK3Cδ_h): 891 nM
Kd (MTOR_h): 525 nM
IC50 ([2]; Homo sapiens, PC-3, 1 h): 263 nM
Kd (PIK3Cγ_h): 14500 nM
Kd (PIK3Cα_h): 30200 nM

Cc1nc2c(N)cc(N3CCOCC3)nn2c1Nc1cccc(C(F)(F)F)c1CN1CCC(S(C)(=O)=O)CC1 [Compound 54]
IC50 ([1]; Homo sapiens, PC-3, 1 h): 98 nM
Kd (PIK3Cβ_h): 12 nM
Kd (PIK3Cδ_h): 490 nM
Kd (MTOR_h): > 30200 nM
IC50 ([2]; Homo sapiens, PC-3, 1 h): 200 nM
Kd (PIK3Cγ_h): > 30200 nM
Kd (PIK3Cα_h): 16200 nM

Cc1nc2c(-c3ncc[nH]3)cc(N3CCOCC3)nn2c1Cc1cccc(C(F)(F)F)c1C [Compound 7]
IC50 ([1]; Homo sapiens, PC-3, 1 h): 135 nM
Kd (PIK3Cβ_h): 15 nM
Kd (PIK3Cδ_h): 525 nM
Kd (MTOR_h): > 10000 nM
IC50 ([2]; Homo sapiens, PC-3, 1 h): 269 nM
Kd (PIK3Cγ_h): > 30200 nM
Kd (PIK3Cα_h): > 3310 nM

Cc1nc2c(N)cc(N3CCOCC3)nn2c1Cc1cccc(F)c1CNC(C)CO (stereo not drawn) [Compound 103]
IC50 ([1]; Homo sapiens, PC-3, 1 h): > 382 nM
Kd (PIK3Cβ_h): 74 nM
Kd (PIK3Cδ_h): 1000 nM
Kd (MTOR_h): 24500 nM
IC50 ([2]; Homo sapiens, PC-3, 1 h): > 423 nM
Kd (PIK3Cγ_h): 31600 nM
Kd (PIK3Cα_h): > 30200 nM

Cc1c(Cc2c(CO)nc3c(N)cc(N4CCOCC4)nn23)cccc1C(F)(F)F [Compound 14b]
IC50 [1]: 38 nM
Kd (PIK3Cβ_h): 1.5 nM
Kd (PIK3Cδ_h): 253 nM
Kd (MTOR_h): > 30200 nM
IC50 [2]: 60 nM
Kd (PIK3Cγ_h): > 8130 nM
Kd (PIK3Cα_h): > 10000 nM

Cc1c(Cc2c(C(C)O)nc3c(N)cc(N4CCOCC4)nn23)cccc1C(F)(F)F (stereo not drawn) [Compound 32]
IC50 ([1]; Homo sapiens, PC-3, 1 h): 35 nM
Kd (PIK3Cβ_h): 1.8 nM
Kd (PIK3Cδ_h): 355 nM
Kd (MTOR_h): 22400 nM
IC50 ([2]; Homo sapiens, PC-3, 1 h): 87 nM
Kd (PIK3Cγ_h): 12000 nM
Kd (PIK3Cα_h): 14800 nM

Cc1nc2c(C(N)=O)cc(N3CCOCC3)nn2c1Nc1cccc(C(F)(F)F)c1C [Compound 40]
IC50 ([1]; Homo sapiens, PC-3, 1 h): 60 nM
Kd (PIK3Cβ_h): 4 nM
Kd (PIK3Cδ_h): 372 nM
Kd (MTOR_h): 20100 nM
IC50 ([2]; Homo sapiens, PC-3, 1 h): 105 nM
Kd (PIK3Cγ_h): 3900 nM
Kd (PIK3Cα_h): 2040 nM
